We go through six molecules from publication PMC6731340, “Evaluation of synergy between host and pathogen-directed therapies against intracellular Leishmania donovani” (International Journal for Parasitology: Drugs and Drug …, 2019).

Where two headings read alike, the source gives them in different places.

The IC50 is the concentration needed to halve the response being measured.

Series [1] relates to L. donovani intracellular amastigotes. As to the kind of experiment: Modified resazurin-based viability analysis of L. donovani in infected macrophages. As to conditions: for Selectivity (LD50/IC50): LD50 macrophages / resazurin intracellular IC50; for IC50: Leishmania donovani, BMDM, infected BMDMs, 72 h. Type of series: cell-based, Leishmania donovani. On the procedure:
BMDMs (1 × 10^5 per one 96-well) infected overnight with stationary phase L. donovani promastigotes (MOI 1:10), were washed (3×) with serum free DMEM, and incubated with compounds for 72 h. Then, parasites were rescued with BMDM controlled lysis, modified from a previous report ([Kiderlen and Kaye, 1990]). In brief, cells were washed with serum-free HEPES-buffered RPMI (HEPES-RPMI; 1×), lysed (20 min) with HEPES-RPMI (100 μL/well) with 0.008% SDS (w/v), SDS neutralized with HEPES-RPMI with 17% FBS (v/v; 150 μL/well) and placed in an air-tight container (25 °C for 96 h). Resazurin [0.02% (w/v); 25 μL] was added, incubated (24 h) and was assessed fluorometrically.
(In general: Alamar Blue is a resazurin reagent that responds to reducing activity.)

The test system of series [2] is L. donovani extracellular promastigotes. The experiment in a line: Resazurin-based drug susceptibility assay on promastigotes. Type of series: cell-based. As to conditions: Leishmania donovani, 72 h drug at 25 °C. On the procedure:
(§1) Leishmania donovani strain (ATCC 30030; ATCC; Manassas VA) was used in all studies and grown via manufacture's specification. The promastigotes screening were performed as described previously, with few modifications ([Kulshrestha et al., 2013]). Late log-phase promastigotes (1 × 10^5 per one 96-well) were incubated with drug for 72 h at 25 °C. Resazurin was added [0.002% (w/v)], incubated for 24 h and assessed fluorometrically (ex: 544 nm/em: 590 nm; SpectraMax M2, Molecular Devices, Sunnyvale, CA). L. donovani axenic amastigotes were differentiated as described previously, with little modification ([Ephros et al., 1997]). Late log-phase promastigotes were differentiated into axenic amastigotes in a low pH (6.3) medium for 96 h at 37 °C. Fully differentiated axenic amastigotes (2 × 10^5 per one 96-well) were incubated 72 h with drug at 37 °C, and resazurin assay was then performed as indicated above.

In series [3] the test system is L. donovani intracellular amastigotes. As to the kind of experiment: Image-based (Giemsa) evaluation of intracellular anti-leishmanial activity in infected BMDMs. Type of series: cell-based. As to conditions: Leishmania donovani, BMDM, 72 h, Giemsa stain. As for the experimental part:
An image-based anti-leishmanial assay was used as described previously with slight modification ([Collier et al., 2016]). BMDMs seeded on round glass coverslips (5 × 10^5 cells per one 24-well) were allowed to adhere overnight, infected with stationary phase L. donovani promastigotes (MOI 1:10), incubated overnight, and washed (3×) with warmed serum-free media. Compounds were added, incubated for 72 h, washed (3×) with PBS, fixed with methanol and stained with Giemsa stain (1:20 in H2O). An EVOS XL (100×, Thermo Fisher Scientific) was used for imaging. L. donovani amastigotes per 100 macrophages was determined, in duplicate, and in a blinded fashion.

For series [4], the system named is Mouse bone marrow-derived macrophages (BMDMs). As to the kind of experiment: LDH mammalian cytotoxicity assay. As to conditions: 50% Lethal Dose for BMDMs.
Text: (§2) Mouse bone marrow-derived macrophages (BMDMs) isolation from BALB/c mice and culture was done as described previously ([Weischenfeldt and Porse, 2008]), and approved by the Animal Care and Use Committees at UNC. A lactate dehydrogenase (LDH) assay (Thermo Fisher Scientific, Grand Island, NY) was used to determine cytotoxicity per manufacturer's directions.
Series [5] relates to L. donovani axenic amastigotes. The experiment in a line: Resazurin-based drug susceptibility assay on axenic amastigotes. As to conditions: Leishmania donovani, 72 h drug at 37 °C. Type of series: cell-based. As for the experimental part: as §1
The subject of another series is promastigotes. Details: method as in Pan et al., 2012. Conditions: ref Pan et al., 2012; read-out: IC50, direct activity against promastigotes; cited from earlier work.
The test system of series [6] is intracellular L. mexicana. On the set-up: method as in Pan et al., 2012. As to conditions: ref Pan et al., 2012; read-out: IC50, anti-leishmanial activity against intracellular L. mexicana; cited from earlier work.
The subject of a further series is VL patients. On the set-up: method as in Sundar et al., 2008. As to conditions: AMB alone; ref Sundar et al., 2008; cited from earlier work.
The subject of series [7] is Mouse bone marrow-derived macrophages (BMDMs). Conditions: BALB/c.
Text: as §2
Another series has as its system L. donovani amastigotes. On the set-up: method as in De Muylder et al., 2011. Conditions: intracellular vs axenically grown amastigotes; ref De Muylder et al., 2011; cited from earlier work.
Details of series [8]: method as in earlier work. Conditions: ref Mishra and Singh, 2013; Perez-Victoria et al., 2006; Seifert et al., 2007; cited from earlier work.

On to `NCC(=O)Nc1ccc(-n2nc(C(F)(F)F)cc2-c2ccc3c(ccc4ccccc43)c2)cc1` [AR-12], for which, in [1], the “Selectivity (LD50/IC50)” value is 8. Besides, the IC50 in series [1] worked out at 1.44 ± 0.08 µM; in [2] it was 3.3 ± 0.42 µM; in [3], 1.18 ± 0.18 µM; in series [5], 3.45 ± 0.07 µM. Also, the “Cytotoxicity LD50” value in series [4] was 11.1 ± 2.5 µM.

For `CC(=O)C1=CC[C@H]2[C@@H]3CCC4=CC(=O)CC[C@]4(C)[C@H]3C[C@@H](O)[C@]12C` [DNER, 6,7-dihydroneridienone], the IC50 was 9200 nM in the series on promastigotes and 1400 nM in [6].

In the case of `C[C@@H]1[C@H](O)[C@@H](C)/C=C/C=C/C=C/C=C/C=C/C=C/C=C/[C@H](O[C@@H]2O[C@H](C)[C@@H](O)[C@H](N)[C@@H]2O)C[C@@H]2O[C@](O)(C[C@@H](O)C[C@@H](O)[C@H](O)CC[C@@H](O)C[C@@H](O)CC(=O)O[C@H]1C)C[C@H](O)[C@H]2C(=O)O` [Amphotericin B, amphotericin B], the “Selectivity (LD50/IC50)” value in [1] turned out to be 1167. Also, the IC50 in series [1] stood at 0.033 ± 0.011 µM; in series [2] it was 0.047 ± 0.004 µM; in series [3], 0.024 ± 0.001 µM; in series [5] it was 0.049 ± 0.005 µM. Moreover, the VL patients cured in the series on VL patients is 91%. In addition, in series [7], the “Cytotoxicity LD50” value was 38.5 ± 4.95 µM.

Consider `NC[C@@H]1O[C@H](O[C@H]2[C@@H](O)[C@H](O[C@@H]3[C@@H](O)[C@H](N)C[C@H](N)[C@H]3O[C@H]3O[C@H](CO)[C@@H](O)[C@H](O)[C@H]3N)O[C@@H]2CO)[C@H](N)[C@@H](O)[C@@H]1O` [Paromomycin, paromomycin], for which the “Selectivity (LD50/IC50)” value in series [1] is greater than 68. The IC50 came out at 11.6 ± 0.42 µM in series [1], 59 ± 5.66 µM in series [2], 15.2 ± 4.67 µM in [3] and 22 ± 4.24 µM in series [5]. In series [4], the “Cytotoxicity LD50” value is greater than 800 µM.

On to `C=CCN1CC[C@]23c4c5ccc(O)c4O[C@H]2/C(=N/N=C2\CC[C@@]4(O)[C@H]6Cc7ccc(O)c8c7[C@@]4(CCN6CC=C)[C@H]2O8)CC[C@@]3(O)[C@H]1C5` [naloxonazine], for which the anti-leishmanial activity entry with L. donovani amastigotes was “found only against intracellular L. donovani amastigotes”.

With `CCCCCCCCCCCCCCCCOP(=O)([O-])OCC[N+](C)(C)C` [Miltefosine, miltefosine], in series [8], the drug half-life was roughly 150 h. Also, the figures for the IC50 in series [1], in [2] and in [3] were 0.55 ± 0.15 µM, 5.4 ± 0.42 µM and 1.1 ± 0.37 µM, respectively. In addition, the “Cytotoxicity LD50” value in series [4] stood at 62.5 ± 4.95 µM.
